Patent US10159640B2, “Prebiotic oral care compositions containing amino acids” (COLGATE-PALMOLIVE COMPANY, priority 2013, dated 2018)

Columns and labels:
Type in all cases: cell-based
[1] = test system: beneficial oral bacteria and pathogenic oral bacteria; experiment: Extent of growth, whole panel: prebiotic effect; details: threshold value of 1.25
From the text: Substrates that were able to increase the growth (or maximal growth density or extent of growth) of at least one of the above beneficial bacteria while not or only minimally increasing the growth (or maximal growth density) of the pathogenic bacteria are considered to be prebiotic compounds.
(§1) The extent of growth of the tested bacteria in response to selected compounds (Met-Pro, Phe-Glu) was investigated by setting up growth curves in a nutritionally rich medium (brain heart infusion broth (BHI), Oxoid), over 48 hours. Late exponential growth phase liquid cultures were prepared by transferring the respective bacterium from blood agar plates to BHI and overnight incubation at 37° C. in an anaerobic atmosphere for A. viscosus, V. parvula, F. nucleatum, P. gingivalis, P. intermedia, T. forsythia, A. naeslundii, and C. sputigena, and in a 5% CO2 environment for S. salivarius, S. sanguinis, S. mitis, A. actinomycetemcomitans, S. mutans, S. sobrinus and S. gordonii. Overnight cultures were transferred to BHI and adjusted to a concentration of 1×10^7 CFU/ml (colony forming units per ml) by measuring the optical density at 600 nm (OD600) (BioRad SmartSpec 3000). For each strain, 200 μl of the bacterial suspension was added to a 96-well plate containing 20 μl of the respective di-peptides. Final concentrations of the di-peptides were set to 5, 10, 20 and 25 μmol/ml. […] Plates were incubated as previously described.
(§2) For each combination of bacterium/dipeptide, and for each of their respective controls (i.e. the particular bacterium in the nutritionally rich medium with no dipeptide), the optical density was measured at 630 nm (OD630) at 0 h, 24 h and 48 h (Thermo Scientific Multiskan Ascent). Additionally, the OD630 for combinations of bacterium/dipeptide grown in a 5% CO2 environment were also measured every hour between 0 h and 9 h.
(§3) The experiment was carried out on three different days (thus providing 3 biological replicas) and on each day the experiment was carried out in quadruple (thus providing 4 technical replicas) for each combination of bacterium with dipeptide and for each control. For each day and for each combination, the average (mean) of the values obtained (as detailed above) for the four technical replicas was calculated to provide a single value for each combination on each day. The values shown in Tables 5 to 6, below, are the average (mean) of the three single values obtained for each combination of bacterium with dipeptide.
This value was selected in order to exclude low-stimulating metabolites and avoid false positive results.

Tannerella forsythia = experiment: Extent of growth, growth curves in BHI; details: control = 1
Description: as §1, §2, §3

Actinomyces viscosus = experiment: Extent of growth, growth curves in BHI; details: control = 1
Description: as §1, §2, §3

Streptococcus sanguinis = experiment: Extent of growth, growth curves in BHI; details: control = 1
Description: as §1, §2, §3

Porphyromonas gingivalis = experiment: Extent of growth, growth curves in BHI; details: control = 1
Description: as §1, §2, §3

[2] = test system: Aggregatibacter actinomycetemcomitans; experiment: Extent of growth, growth curves in BHI; details: control = 1
Description: as §1, §2, §3

Streptococcus mitis = experiment: Extent of growth, growth curves in BHI; details: control = 1
Description: as §1, §2, §3

Actinomyces naeslundii = experiment: Extent of growth, growth curves in BHI; details: control = 1
Description: as §1, §2, §3

Capnocytophaga sputigena = experiment: Extent of growth, growth curves in BHI; details: control = 1
Description: as §1, §2, §3

Streptococcus salivarius = experiment: Extent of growth, growth curves in BHI; details: control = 1
Description: as §1, §2, §3

Fusobacterium nucleatum = experiment: Extent of growth, growth curves in BHI; details: control = 1
Description: as §1, §2, §3

Streptococcus sobrinus = experiment: Extent of growth, growth curves in BHI; details: control = 1
Description: as §1, §2, §3

Veillonella parvula = experiment: Extent of growth, growth curves in BHI; details: control = 1
Description: as §1, §2, §3

Streptococcus mutans = experiment: Extent of growth, growth curves in BHI; details: control = 1
Description: as §1, §2, §3

Prevotella intermedia = experiment: Extent of growth, growth curves in BHI; details: control = 1
Description: as §1, §2, §3

Streptococcus gordonii = experiment: Extent of growth, growth curves in BHI; details: control = 1
Description: as §1, §2, §3

Substance: Phe-Glu
- prebiotic effects (extent of growth) ([1]; 5 μmol/ml): exhibited prebiotic effects
- prebiotic effects (extent of growth) ([1]; 10 μmol/ml): exhibited prebiotic effects
- extent of growth: maximal OD630 over 48 hr divided by maximal OD of control (Tannerella forsythia; 5 μmol/ml): 1.0118
- extent of growth: maximal OD630 over 48 hr divided by maximal OD of control (Tannerella forsythia; 10 μmol/ml): 0.7490
- extent of growth: maximal OD630 over 48 hr divided by maximal OD of control (Tannerella forsythia; 20 μmol/ml): 0.7707
- extent of growth: maximal OD630 over 48 hr divided by maximal OD of control (Tannerella forsythia; 25 μmol/ml): 0.8302
- extent of growth: maximal OD630 over 48 hr divided by maximal OD of control (Actinomyces viscosus; 5 μmol/ml): 0.5112
- extent of growth: maximal OD630 over 48 hr divided by maximal OD of control (Actinomyces viscosus; 10 μmol/ml): 0.3845
- extent of growth: maximal OD630 over 48 hr divided by maximal OD of control (Actinomyces viscosus; 20 μmol/ml): 0.1598
- extent of growth: maximal OD630 over 48 hr divided by maximal OD of control (Actinomyces viscosus; 25 μmol/ml): 0.1563
- extent of growth: maximal OD630 over 48 hr divided by maximal OD of control (Streptococcus sanguinis; 5 μmol/ml): 0.8140
- extent of growth: maximal OD630 over 48 hr divided by maximal OD of control (Streptococcus sanguinis; 10 μmol/ml): 0.5644
- extent of growth: maximal OD630 over 48 hr divided by maximal OD of control (Streptococcus sanguinis; 20 μmol/ml): 0.2451
- extent of growth: maximal OD630 over 48 hr divided by maximal OD of control (Streptococcus sanguinis; 25 μmol/ml): 0.2334
- extent of growth: maximal OD630 over 48 hr divided by maximal OD of control (Porphyromonas gingivalis; 5 μmol/ml): 0.8526
- extent of growth: maximal OD630 over 48 hr divided by maximal OD of control (Porphyromonas gingivalis; 10 μmol/ml): 0.9810
- extent of growth: maximal OD630 over 48 hr divided by maximal OD of control (Porphyromonas gingivalis; 20 μmol/ml): 0.4181
- extent of growth: maximal OD630 over 48 hr divided by maximal OD of control (Porphyromonas gingivalis; 25 μmol/ml): 0.4208
- extent of growth: maximal OD630 over 48 hr divided by maximal OD of control ([2]; 5 μmol/ml): 0.5643
- extent of growth: maximal OD630 over 48 hr divided by maximal OD of control ([2]; 10 μmol/ml): 0.3227
- extent of growth: maximal OD630 over 48 hr divided by maximal OD of control ([2]; 20 μmol/ml): 0.2201
- extent of growth: maximal OD630 over 48 hr divided by maximal OD of control ([2]; 25 μmol/ml): 0.2320
- extent of growth: maximal OD630 over 48 hr divided by maximal OD of control (Streptococcus mitis; 5 μmol/ml): 1.9957
- extent of growth: maximal OD630 over 48 hr divided by maximal OD of control (Streptococcus mitis; 10 μmol/ml): 2.0642
- extent of growth: maximal OD630 over 48 hr divided by maximal OD of control (Streptococcus mitis; 20 μmol/ml): 0.3250
- extent of growth: maximal OD630 over 48 hr divided by maximal OD of control (Streptococcus mitis; 25 μmol/ml): 0.4367
- extent of growth: maximal OD630 over 48 hr divided by maximal OD of control (Actinomyces naeslundii; 5 μmol/ml): 0.7791
- extent of growth: maximal OD630 over 48 hr divided by maximal OD of control (Actinomyces naeslundii; 10 μmol/ml): 0.4962
- extent of growth: maximal OD630 over 48 hr divided by maximal OD of control (Actinomyces naeslundii; 20 μmol/ml): 0.1648
- extent of growth: maximal OD630 over 48 hr divided by maximal OD of control (Actinomyces naeslundii; 25 μmol/ml): 0.1653
- extent of growth: maximal OD630 over 48 hr divided by maximal OD of control (Capnocytophaga sputigena; 5 μmol/ml): 0.9921
- extent of growth: maximal OD630 over 48 hr divided by maximal OD of control (Capnocytophaga sputigena; 10 μmol/ml): 0.9872
- extent of growth: maximal OD630 over 48 hr divided by maximal OD of control (Capnocytophaga sputigena; 20 μmol/ml): 1.0801
- extent of growth: maximal OD630 over 48 hr divided by maximal OD of control (Capnocytophaga sputigena; 25 μmol/ml): 1.1804
- extent of growth: maximal OD630 over 48 hr divided by maximal OD of control (Streptococcus salivarius; 5 μmol/ml): 0.9916
- extent of growth: maximal OD630 over 48 hr divided by maximal OD of control (Streptococcus salivarius; 10 μmol/ml): 0.8123
- extent of growth: maximal OD630 over 48 hr divided by maximal OD of control (Streptococcus salivarius; 20 μmol/ml): 0.2953
- extent of growth: maximal OD630 over 48 hr divided by maximal OD of control (Streptococcus salivarius; 25 μmol/ml): 0.2322
- extent of growth: maximal OD630 over 48 hr divided by maximal OD of control (Fusobacterium nucleatum; 5 μmol/ml): 0.7990
- extent of growth: maximal OD630 over 48 hr divided by maximal OD of control (Fusobacterium nucleatum; 10 μmol/ml): 0.8493
- extent of growth: maximal OD630 over 48 hr divided by maximal OD of control (Fusobacterium nucleatum; 20 μmol/ml): 0.2311
- extent of growth: maximal OD630 over 48 hr divided by maximal OD of control (Fusobacterium nucleatum; 25 μmol/ml): 0.2402
- extent of growth: maximal OD630 over 48 hr divided by maximal OD of control (Streptococcus sobrinus; 5 μmol/ml): 1.0790
- extent of growth: maximal OD630 over 48 hr divided by maximal OD of control (Streptococcus sobrinus; 10 μmol/ml): 0.9900
- extent of growth: maximal OD630 over 48 hr divided by maximal OD of control (Streptococcus sobrinus; 20 μmol/ml): 0.5832
- extent of growth: maximal OD630 over 48 hr divided by maximal OD of control (Streptococcus sobrinus; 25 μmol/ml): 0.4315
- extent of growth: maximal OD630 over 48 hr divided by maximal OD of control (Veillonella parvula; 5 μmol/ml): 1.0286
- extent of growth: maximal OD630 over 48 hr divided by maximal OD of control (Veillonella parvula; 10 μmol/ml): 1.0199
- extent of growth: maximal OD630 over 48 hr divided by maximal OD of control (Veillonella parvula; 20 μmol/ml): 0.9533
- extent of growth: maximal OD630 over 48 hr divided by maximal OD of control (Veillonella parvula; 25 μmol/ml): 1.0475
- extent of growth: maximal OD630 over 48 hr divided by maximal OD of control (Streptococcus mutans; 5 μmol/ml): 0.9703
- extent of growth: maximal OD630 over 48 hr divided by maximal OD of control (Streptococcus mutans; 10 μmol/ml): 0.9003
- extent of growth: maximal OD630 over 48 hr divided by maximal OD of control (Streptococcus mutans; 20 μmol/ml): 0.4212
- extent of growth: maximal OD630 over 48 hr divided by maximal OD of control (Streptococcus mutans; 25 μmol/ml): 0.2492
- extent of growth: maximal OD630 over 48 hr divided by maximal OD of control (Prevotella intermedia; 5 μmol/ml): 1.1149
- extent of growth: maximal OD630 over 48 hr divided by maximal OD of control (Prevotella intermedia; 10 μmol/ml): 0.2856
- extent of growth: maximal OD630 over 48 hr divided by maximal OD of control (Prevotella intermedia; 20 μmol/ml): 0.2094
- extent of growth: maximal OD630 over 48 hr divided by maximal OD of control (Prevotella intermedia; 25 μmol/ml): 0.2224
- extent of growth: maximal OD630 over 48 hr divided by maximal OD of control (Streptococcus gordonii; 5 μmol/ml): 0.9682
- extent of growth: maximal OD630 over 48 hr divided by maximal OD of control (Streptococcus gordonii; 10 μmol/ml): 0.8613
- extent of growth: maximal OD630 over 48 hr divided by maximal OD of control (Streptococcus gordonii; 20 μmol/ml): 0.3992
- extent of growth: maximal OD630 over 48 hr divided by maximal OD of control (Streptococcus gordonii; 25 μmol/ml): 0.2908
